Results reported in ChEMBL document CHEMBL4610051, “Spirobiflavonoid stereoisomers from the endangered conifer Glyptostrobus pensilis and their protein tyrosine phosphatase 1B inhibitory activity” (Bioorg Med Chem Lett, 2020).

Biological target: T1, Tyrosine-protein phosphatase non-receptor type 1 (Homo sapiens, UniProt P18031)
T1 sequence (P18031 whole entry): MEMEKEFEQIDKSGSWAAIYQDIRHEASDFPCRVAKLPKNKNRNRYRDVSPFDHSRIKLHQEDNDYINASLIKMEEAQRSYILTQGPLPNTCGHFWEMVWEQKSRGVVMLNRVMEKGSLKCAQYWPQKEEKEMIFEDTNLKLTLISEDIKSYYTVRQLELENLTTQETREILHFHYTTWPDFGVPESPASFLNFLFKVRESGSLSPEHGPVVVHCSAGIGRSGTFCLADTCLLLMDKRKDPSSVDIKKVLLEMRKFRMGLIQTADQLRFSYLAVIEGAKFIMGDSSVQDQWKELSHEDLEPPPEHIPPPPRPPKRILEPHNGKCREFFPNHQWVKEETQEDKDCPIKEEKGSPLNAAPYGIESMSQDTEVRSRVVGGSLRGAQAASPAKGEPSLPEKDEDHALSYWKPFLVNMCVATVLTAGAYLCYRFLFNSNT
Test: Inhibition of human PTP1B

Row | IC50 | SMILES
1 | 8.1 µM | O=C1Oc2cc(O)c3c(c2[C@@]12c1c(O)cc(O)cc1O[C@@H]2c1ccc(O)cc1)O[C@H](c1ccc(O)cc1)[C@H](O)C3
2 | 4.6 µM | O=C1Oc2cc(O)c3c(c2[C@@]12c1c(O)cc(O)cc1O[C@H]2c1ccc(O)cc1)O[C@H](c1ccc(O)cc1)[C@@H](O)C3
3 | 11.2 µM | O=C1Oc2cc(O)c3c(c2[C@]12c1c(O)cc(O)cc1O[C@H]2c1ccc(O)cc1)O[C@H](c1ccc(O)cc1)[C@@H](O)C3
4 | 3.3 µM | O=C1Oc2cc(O)c3c(c2[C@]12c1c(O)cc(O)cc1O[C@@H]2c1ccc(O)cc1)O[C@H](c1ccc(O)cc1)[C@@H](O)C3
5 | 17.1 µM | O=C1Oc2cc(O)c3c(c2[C@@]12c1c(O)cc(O)cc1O[C@@H]2c1ccc(O)cc1)O[C@H](c1ccc(O)cc1)[C@@H](O)C3
6 | 12.9 µM | O=C1Oc2cc(O)c3c(c2[C@]12c1c(O)cc(O)cc1O[C@@H]2c1ccc(O)cc1)O[C@H](c1ccc(O)cc1)[C@H](O)C3 [LARIXINOL]
